Patent US5783558A, “Parathormone fragments, their preparation and medicaments containing these” (Boehringer Mannheim GmbH, priority 1992, dated 1998)

How the values were obtained:
UMR 106 cells = experiment: DNA synthesis capacity of PTH(3-X) fragments on UMR 106 cells ([3H]-thymidine incorporation); type: cell-based
Description: DNA synthesis capacity on PTH-(3-X) fragments
An increased DNA synthesis capacity on UMR 106 cells was also observed with fragments, the N-terminus of which was shortened by two amino acids. An action maximum was again present when the chain length lay between 34 and 36 amino acids (cf. Tab. 6). This finding is surprising since it is known that a deletion of the amino acids +1 or +1 and +2 leads to the loss of the cAMP induction, combined with the loss of the calcium-mobilising properties of the PTH. An anabolic (mitogenic) activity of N-terminal shortened PTH fragments has hitherto not been described.

rats = experiment: Ca retention (Ca balance) in growing rats; type: in vivo, rat; design: Ca retention (mg per day) average value: dose or concentration left out as unconfirmed; settings: for Ca retention (mg per day) average value / Ca retention % increase: male CD rats, daily subcutaneous, 10 days; for Ca retention (mg per day) average value: equimolar doses, balance measured during last 3 days; for Ca retention in words: rats, compared with hPTH(1-n), n=34, 37, 38; for Ca retention % increase: versus control
Method: Determination of the action of various PTH fragments on the Ca retention in the case of rats.
The measurement of the Ca balance in growing rats is a suitable model to test in vivo the effectiveness of a systemically administered substance on the bone metabolism. In the case of the Ca balance, the Ca flows in and out of the body are measured and the Ca retention (balance) calculated therefrom. It is thereby taken into account that the bones store about 99% of the body calcium, whereas the plasma calcium level remains constant. The amount of calcium retained in the body from the nutrition can, therefore, be regarded as proportional to the growth in the bone mass.
As experimental animals for the investigations, there served male CD rats which, at the beginning of the experiment, were 10 weeks old and weighed 250-300 g. The experimental animals were kept individually in commercially-available metabolic cages. An automatic separation of faeces and urine took place in the metabolic cages. Both fractions were collected quantitatively in collection containers and could be analyzed separately from one another.
As feed there served a standard diet for rats of meal-like consistency which was pasted with aqua dist. in the ratio of 1:1. The daily provided amount of feed was so adapted to the feed requirement of the animals in the sense of a so-called "group feedings" that they were completely eaten by all animals. The daily food ration amounted to 20 g (wet feed). Aqua dist. was offerred to the animals ad libitum.
All test substances were injected daily subcutaneously in equimolar doses (corresponding to […] hPTH(1-34)×kg^-1 ×day^-1), over 10 days. Of this, the first 7 days served for the adaptation of the animals, whereas the measurement of the Ca balance took place during the last 3 days.
The Ca intake was calculated via the amount of feed taken up and the experimentally determined Ca content of the feed. For this purpose, from the feed batch of each day, an aliquot was dried to constant weight and the water content determined from the comparison of wet and dry weight. Subsequently, 2×500 mg of the dried feed was digested with a laboratory microwave apparatus in conc. acids as follows: To 500 mg of dried feed were successively pipetted 3 ml HNO3 (conc.), 1 ml HCl (conc.) and 1 ml H2 O2 (30%). After the subsidence of the spontaneous oxidation reaction (foaming up), there followed the digestion pressure-controlled in closed digestion containers of Teflon PFA. The pressure/time steps were thereby successively following passed through: 40 psi (276 kpa), 5 min; 80 psi (552 kPa), 5 min; 150 psi ([…]); 10 min. To the cooled digest were then again added 2 ml H 2 O2 (30%) in order to test the completeness of the digestion reaction (no more foaming up).The digest was made up with a 1% lanthanum nitrate solution (v/v in 0.3% HCl) ad 100 ml. For the measurement of the Ca content on a flame atom absorption spectrometer (AAS), the samples were again dilute 1:100 with 1% lanthanum nitrate solution. The Ca intake was then calculated from the taken-up amount of feed and the measured water and Ca content.
The Ca loss via the faeces was then determined analogously to the Ca intake: Determination of the water content, acidic digestion in the microwave apparatus under the same conditions and subsequent measurement of the Ca content on the AAS.
In the collection container for the urine was placed 2 ml 10% HCl in order to prevent a precipitation of urate. After the end of the experiment, the urine volume was determined by weighing and subsequently an aliquot thereof diluted with 1% lanthanum nitrate solution (v/v in 0.3% HCl) in the ratio of 1:100. The determination of the Ca content of the samples took place on the AAS.

sterna organ cultures [1] = experiment: Mitogeneity on sterna organ cultures; type: cell-based; settings: n=4
Method: Mitogeneity on sterna organ cultures
The mitogeneity of the new fragments was tested in organ cultures from sterna and it was ascertained that this activity was more strongly marked than in the case of the known fragments hPTH(1-34) and hPTH(1-38)(cf. Tab. 2).

ROS 17/2.8 cells = experiment: DNA synthesis capacity on ROS 17/2.8 cells ([3H]-thymidine incorporation); type: cell-based; settings: for DNA synthesis E/C / [^3 H]-thymidine incorporation (cpm): hPTH(1-X) 100 nM, ROS/2.8 cells
Method: DNA synthesis capacity on ROS 17/2.8 cells
The DNA synthesis capacity was measured on ROS 17/2.8 cells. […] Tab. 3: DNA synthesis hPTH(1-X), 100 nM, ROS/2.8 cells

sterna organ cultures [2] = experiment: cAMP stimulation on sterna organ cultures; type: cell-based; settings: for pMol cAMP: 100 nm inductor, n=4; for Induction of cAMP formation in words: compared with PTH(1-34)
Method: (§1) In organ cultures from sterna, as well as on membrane fractions from pigs' kidneys was measured the induction of the cAMP formation by various PTH peptides. […] This is of importance since the catabolic, i.e. calcium-mobilising properties of PTH are, as is known, involved with an increase of the cAMP (Schluter et al. (1989), J. Biol. Chem. 264, 19:11087-11092; Lowik et al., (1988), Calcif Tissue Int. 43:7-18). These findings are plausible and, therefore, support the above-mentioned findings which show an increase of the anabolic properties of the peptide in the case of a chain length between 35 and 36 amino acids.

[3] = tested on: membrane fractions from pigs' kidneys; experiment: cAMP stimulation on porcine kidney membrane; type: biochemical, pig; settings: for Induction of cAMP formation in words: membrane fractions from pigs' kidneys, compared with PTH(1-34); for pMol cAMP/mg protein ± SEM: porcine kidney membrane, n=3
Method: as §1

PTH (3-34): PTH fragment, N-terminus shortened by two amino acids, positions 3-34 (SEIQLMHNLGKHLNSMERVEWLRKKLQDVHNF; Parathyroid hormone; UniProt P01270 34-65, looked up, fragment)
DNA synthesis E/C (UMR 106 cells; PTH(3-X) 100 nM): 1.9 ± 0.12 | [^3 H]-thymidine incorporation (cpm) (UMR 106 cells; PTH(3-X) 100 nM): 1,748 ± 150 cpm | DNA synthesis E/C (UMR 106 cells; PTH(3-X) 300 nM): 3.6 ± 0.31 | [^3 H]-thymidine incorporation (UMR 106 cells; PTH(3-X) 300 nM): 3,516 ± 297

PTH (3-37): PTH fragment, N-terminus shortened by two amino acids, positions 3-37 (SEIQLMHNLGKHLNSMERVEWLRKKLQDVHNFVAL; Parathyroid hormone; UniProt P01270 34-68, looked up, fragment)
DNA synthesis E/C (UMR 106 cells; PTH(3-X) 100 nM): 2.3 ± 0.06 | [^3 H]-thymidine incorporation (cpm) (UMR 106 cells; PTH(3-X) 100 nM): 2,161 ± 74 cpm | DNA synthesis E/C (UMR 106 cells; PTH(3-X) 300 nM): 4.1 ± 0.28 | [^3 H]-thymidine incorporation (UMR 106 cells; PTH(3-X) 300 nM): 3,962 ± 268

PTH (3-38): PTH fragment, N-terminus shortened by two amino acids, positions 3-38 (SEIQLMHNLGKHLNSMERVEWLRKKLQDVHNFVALG; Parathyroid hormone; UniProt P01270 34-69, looked up, fragment)
DNA synthesis E/C (UMR 106 cells; PTH(3-X) 100 nM): 2.1 ± 0.13 | [^3 H]-thymidine incorporation (cpm) (UMR 106 cells; PTH(3-X) 100 nM): 1,905 ± 159 cpm | DNA synthesis E/C (UMR 106 cells; PTH(3-X) 300 nM): 3.8 ± 0.43 | [^3 H]-thymidine incorporation (UMR 106 cells; PTH(3-X) 300 nM): 3,701 ± 414

Ser-Val-Ser-Glu-Ile-Gln-Leu-Met-His-Asn-Leu-Gly-Lys-His-Leu-Asn-Ser-Met-Glu-Arg-Val-Glu-Trp-Leu-Arg-Lys-Lys-Leu-Gln-Asp-Val-His-Asn-Phe-Val (SVSEIQLMHNLGKHLNSMERVEWLRKKLQDVHNFV) [hPTH(1-35)]
Ca retention (mg per day) average value (rats): 108.6 mg per day | Ca retention in words (rats): higher Ca retention | Ca retention % increase (rats): 119% | Mitogeneity E/C +/- SEM (sterna organ cultures [1]): 3.13 +/- 0.57 | DNA synthesis capacity in words (ROS 17/2.8 cells; ROS 17/2.8 cells, compared with other fragments): more strongly increased | DNA synthesis E/C (ROS 17/2.8 cells): 4.1 ± 0.43 | [^3 H]-thymidine incorporation (cpm) (ROS 17/2.8 cells): 2,686 ± 282 cpm | pMol cAMP (sterna organ cultures [2]): 18.2 pMol | Induction of cAMP formation in words (sterna organ cultures [2]): decreased | Induction of cAMP formation in words [3]: decreased | pMol cAMP/mg protein ± SEM [3]: 82.4 ± 0.4 pMol cAMP/mg protein

Ser-Val-Ser-Glu-Ile-Gln-Leu-Met-His-Asn-Leu-Gly-Lys-His-Leu-Asn-Ser-Met-Glu-Arg-Val-Glu-Trp-Leu-Arg-Lys-Lys-Leu-Gln-Asp-Val-His-Asn-Phe-Val-Ala (SVSEIQLMHNLGKHLNSMERVEWLRKKLQDVHNFVA) [hPTH(1-36)]
Ca retention (mg per day) average value (rats): 110.5 mg per day | Ca retention in words (rats): higher Ca retention | Ca retention % increase (rats): 123% | Mitogeneity E/C +/- SEM (sterna organ cultures [1]): 3.37 +/- 0.58 | DNA synthesis E/C (ROS 17/2.8 cells): 3.2 ± 0.37 | [^3 H]-thymidine incorporation (cpm) (ROS 17/2.8 cells): 2,136 ± 246 cpm | pMol cAMP (sterna organ cultures [2]): 17.6 pMol | Induction of cAMP formation in words (sterna organ cultures [2]): decreased | Induction of cAMP formation in words [3]: decreased | pMol cAMP/mg protein ± SEM [3]: 44.6 ± 1.8 pMol cAMP/mg protein

hPTH(1-37): known human parathyroid hormone fragment, amino acids 1-37 (WO 91/06564) (SVSEIQLMHNLGKHLNSMERVEWLRKKLQDVHNFVAL; Parathyroid hormone; UniProt P01270 32-68, looked up, fragment) [reference compound]
Ca retention (mg per day) average value (rats): 96.0 mg per day | Ca retention % increase (rats): 94% | DNA synthesis E/C (ROS 17/2.8 cells): 3.1 ± 0.38 | [^3 H]-thymidine incorporation (cpm) (ROS 17/2.8 cells): 2,021 ± 251 cpm

hPTH(1-38): known human parathyroid hormone fragment, amino acids 1-38, state of the art (SVSEIQLMHNLGKHLNSMERVEWLRKKLQDVHNFVALG; Parathyroid hormone; UniProt P01270 32-69, looked up, fragment) [reference compound]
Ca retention (mg per day) average value (rats): 91.8 mg per day | Ca retention % increase (rats): 85% | Mitogeneity E/C +/- SEM (sterna organ cultures [1]): 2.96 +/- 0.30
